{"source": "patent US11517624B2", "about": "“Pharmaceutical composition for the parenteral administration of ultrashort-effective β-adrenoreceptor antagonists” (AOP ORPHAN PHARMACEUTICALS AG, priority 2007, dated 2022)", "origin": "cited, not measured here", "data": [{"compound": "COCCc1ccc(OCC(O)CNC(C)C)cc1", "note": "(stereo not shown) [metoprolol]", "values": [{"measurement": "elimination half-life t1/2", "value": 1.5, "unit": "h"}]}]}
